The assay has as its target T1, Nav1.7 voltage-gated sodium channel (Homo sapiens, UniProt Q15858).
T1 construct: Gene(s) encoding the full-length protein of the voltage-gated sodium channel of interest are cloned and expressed; expressed in transfected cells
Kind of assay: Whole-cell voltage clamp electrophysiology assay. It counts as cell-based. The settings on record: cells stably expressing the voltage-gated sodium channel of interest. The procedure, abridged: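 Cells expressing full-length channel, exposed to drug by integrated pipetting on automated patch-clamp platforms or by microperfusion in conventional whole-cell patch clamp. Channels activated by a voltage protocol depolarising from a defined holding potential; buffers per platform manufacturer.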
T1 sequence (Q15858 whole entry): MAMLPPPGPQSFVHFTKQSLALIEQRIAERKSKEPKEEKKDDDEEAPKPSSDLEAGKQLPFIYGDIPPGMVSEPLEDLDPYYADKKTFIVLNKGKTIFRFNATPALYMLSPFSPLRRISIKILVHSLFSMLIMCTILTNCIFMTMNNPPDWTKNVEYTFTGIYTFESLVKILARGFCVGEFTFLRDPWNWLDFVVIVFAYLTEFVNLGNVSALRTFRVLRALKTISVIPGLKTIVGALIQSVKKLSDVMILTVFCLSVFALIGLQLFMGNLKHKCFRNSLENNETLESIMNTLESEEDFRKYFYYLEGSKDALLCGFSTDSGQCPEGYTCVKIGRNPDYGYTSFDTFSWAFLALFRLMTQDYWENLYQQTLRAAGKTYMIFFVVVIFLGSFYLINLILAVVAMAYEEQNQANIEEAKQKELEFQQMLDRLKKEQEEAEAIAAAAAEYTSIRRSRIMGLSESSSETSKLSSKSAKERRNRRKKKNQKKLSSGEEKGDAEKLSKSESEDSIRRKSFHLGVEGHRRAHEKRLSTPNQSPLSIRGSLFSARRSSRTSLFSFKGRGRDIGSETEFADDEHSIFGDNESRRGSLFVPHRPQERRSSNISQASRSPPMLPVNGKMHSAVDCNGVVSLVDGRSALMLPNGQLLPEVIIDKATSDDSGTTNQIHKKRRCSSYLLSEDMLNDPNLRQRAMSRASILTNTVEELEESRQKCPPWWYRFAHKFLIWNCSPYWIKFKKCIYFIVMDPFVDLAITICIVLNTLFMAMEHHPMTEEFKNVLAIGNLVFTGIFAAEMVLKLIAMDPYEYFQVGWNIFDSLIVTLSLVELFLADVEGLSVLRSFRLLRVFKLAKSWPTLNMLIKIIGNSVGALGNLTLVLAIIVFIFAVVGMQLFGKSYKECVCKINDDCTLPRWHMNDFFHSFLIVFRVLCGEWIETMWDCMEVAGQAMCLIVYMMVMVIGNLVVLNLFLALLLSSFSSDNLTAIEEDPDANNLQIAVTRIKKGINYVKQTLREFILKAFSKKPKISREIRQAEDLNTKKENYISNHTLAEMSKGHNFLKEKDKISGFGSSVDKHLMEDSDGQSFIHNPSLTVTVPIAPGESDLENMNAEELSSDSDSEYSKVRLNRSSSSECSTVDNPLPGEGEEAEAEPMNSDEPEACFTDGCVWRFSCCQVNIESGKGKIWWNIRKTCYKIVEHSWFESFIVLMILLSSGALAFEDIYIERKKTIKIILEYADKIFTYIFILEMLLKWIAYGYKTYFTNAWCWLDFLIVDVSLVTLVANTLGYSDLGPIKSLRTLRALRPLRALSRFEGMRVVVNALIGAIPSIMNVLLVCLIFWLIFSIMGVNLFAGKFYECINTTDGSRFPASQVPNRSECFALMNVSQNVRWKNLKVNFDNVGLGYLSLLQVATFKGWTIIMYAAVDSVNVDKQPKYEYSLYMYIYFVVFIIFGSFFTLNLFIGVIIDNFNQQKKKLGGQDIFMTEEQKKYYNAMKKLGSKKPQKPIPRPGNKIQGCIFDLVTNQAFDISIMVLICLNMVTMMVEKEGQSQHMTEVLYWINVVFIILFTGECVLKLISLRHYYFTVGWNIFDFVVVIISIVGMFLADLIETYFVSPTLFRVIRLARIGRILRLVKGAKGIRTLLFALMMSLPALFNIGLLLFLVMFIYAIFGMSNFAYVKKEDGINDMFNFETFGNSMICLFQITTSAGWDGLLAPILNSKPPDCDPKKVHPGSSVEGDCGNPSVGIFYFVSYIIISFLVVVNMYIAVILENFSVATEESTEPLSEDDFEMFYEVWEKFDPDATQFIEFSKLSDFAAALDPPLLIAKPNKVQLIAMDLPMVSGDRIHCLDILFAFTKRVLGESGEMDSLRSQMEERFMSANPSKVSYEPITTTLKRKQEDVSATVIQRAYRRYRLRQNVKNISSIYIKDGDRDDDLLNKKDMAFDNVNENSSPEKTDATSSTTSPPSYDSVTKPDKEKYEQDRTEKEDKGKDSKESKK
Compound `O=C(N[C@@H]1COc2cccc(-c3cnc(CO)cn3)c2C1)c1ccc(OCCOCC(F)(F)F)nc1` [Example 213, N-{(3S)-5-[5-(hydroxymethyl)pyrazin-2-yl]-3,4-dihydro-2H-chromen-3-yl}-6-[2-(2,2,2-trifluoroethoxy)ethoxy]nicotinamide] gave an IC50 of 0.316 µM. This lies in the sub-micromolar range.

`COc1ncc(-c2cccc3c2C[C@H](NC(=O)c2cnc(OC4CCOC4)nc2)CO3)cc1F` (stereo partly drawn) [Example 149, N-[(3S)-5-(5-fluoro-6-methoxypyridin-3-yl)-3,4-dihydro-2H-chromen-3-yl]-2-(tetrahydrofuran-3-yloxy)pyrimidine-5-carboxamide] showed a concentration for half-maximal inhibition (IC50) of 6.31 µM.

As for `Cc1ncc(-c2cccc3c2C[C@H](NC(=O)c2ccc(OCCOC(C)C)nc2)CO3)cn1` [Example 185, 6-(2-isopropoxyethoxy)-N-[(3S)-5-(2-methylpyrimidin-5-yl)-3,4-dihydro-2H-chromen-3-yl]nicotinamide], the midpoint of inhibition, the IC50, lay at 0.316 µM. This IC50 lies about 20-fold lower than the previous one.

The compound `COc1ncc(-c2cccc3c2C[C@H](NC(=O)c2cnc(NCCC(F)(F)F)nc2)CO3)cn1` [Example 195, N-[(3S)-5-(2-methoxypyrimidin-5-yl)-3,4-dihydro-2H-chromen-3-yl]-2-[(3,3,3-trifluoropropyl)amino]pyrimidine-5-carboxamide] showed an IC50 of 0.398 µM. This IC50 and that of the compound before are within 1.5-fold of each other.

In the case of `COCCn1nc(C)c(C(=O)N[C@@H]2COc3cccc(-c4cccnc4)c3C2)n1` [Example 138, 2-(2-methoxyethyl)-5-methyl-N-[(3S)-5-pyridin-3-yl-3,4-dihydro-2H-chromen-3-yl]-2H-1,2,3-triazole-4-carboxamide], the IC50 is 3.16 µM.

On to `CC(C)COc1ccc(C(=O)N[C@@H]2COc3cccc(-c4ccncc4)c3C2)cn1` [Example 24, 6-isobutoxy-N-[(3S)-5-pyridin-4-yl-3,4-dihydro-2H-chromen-3-yl]nicotin-amide], for which the IC50 was 0.126 µM.

`COCCOc1ccc(C(=O)N[C@@H]2COc3cccc(-c4ccncc4)c3C2)cn1` [Example 126, 6-(2-methoxyethoxy)-N-[(3S)-5-pyridin-4-yl-3,4-dihydro-2H-chromen-3-yl]nicotinamide]: half-maximal inhibition (IC50) was put at 2 µM.

In turn, `COc1ncc(-c2cccc3c2C[C@H](NC(=O)c2ccc(C(=O)NCCCOC(C)C)nc2)CO3)cn1` [Example 187, N^2-(3-isopropoxypropyl)-N^5-[(3S)-5-(2-methoxypyrimidin-5-yl)-3,4-dihydro-2H-chromen-3-yl]pyridine-2,5-dicarboxamide] gave an IC50 of 1.58 µM.

For the compound `COc1ncc(-c2cccc3c2C[C@H](NC(=O)c2cnc(OCC(F)(F)F)nc2C)CO3)cn1` [Example 89, N-[(3S)-5-(2-methoxypyrimidin-5-yl)-3,4-dihydro-2H-chromen-3-yl]-4-methyl-2-(2,2,2-trifluoroethoxy)pyrimidine-5-carboxamide], the IC50 was 2 µM.

On to `O=C(N[C@@H]1COc2cccc(-c3ccncc3)c2C1)c1ccc(OC2CCCOC2)nc1` (stereo partly drawn) [Example 136, N-[(3S)-5-pyridin-4-yl-3,4-dihydro-2H-chromen-3-yl]-6-(tetrahydro-2H-pyran-3-yloxy)nicotinamide], for which the midpoint of inhibition, the IC50, lay at 0.316 µM. Compared with the last compound, the IC50 is about 6.3-fold lower.

On to `COc1ccc(-c2cccc3c2C[C@H](NC(=O)c2ccc(OC4CCCOC4)nc2)CO3)cn1` (stereo partly drawn) [Example 135, N-[(3S)-5-(6-methoxypyridin-3-yl)-3,4-dihydro-2H-chromen-3-yl]-6-(tetrahydro-2H-pyran-3-yloxy)nicotinamide], for which half-maximal inhibition (IC50) was put at 0.316 µM.

Compound `O=C(N[C@@H]1COc2cccc(-c3ccncc3)c2C1)c1ccc(OCCC(F)(F)F)nc1` [Example 19, N-[(3S)-5-pyridin-4-yl-3,4-dihydro-2H-chromen-3-yl]-6-(3,3,3-trifluoropropoxy)nicotin-amide] showed a half-inhibitory concentration (IC50) of 0.0794 µM.

In the case of `O=C(N[C@@H]1COc2cccc(-c3ccncc3)c2C1)c1ccc(OC(CF)CF)nc1` [Example 27, 6-[2-fluoro-1-(fluoromethyl)ethoxy]-N-[(3S)-5-pyridin-4-yl-3,4-dihydro-2H-chromen-3-yl]nicotin-amide], 0.631 µM corresponded to half-maximal inhibition (IC50). This IC50 lies about 7.9-fold higher than the previous one.

In turn, `COc1ncc(-c2cccc3c2C[C@H](NC(=O)c2ccc(C(=O)NCCC(F)(F)F)nc2)CO3)cc1F` [Example 179, N^5-[(3S)-5-(5-fluoro-6-methoxypyridin-3-yl)-3,4-dihydro-2H-chromen-3-yl]-N^2-(3,3,3-trifluoropropyl)pyridine-2,5-dicarboxamide] had an IC50 of 0.2 µM.

As to `COc1ncc(-c2cccc3c2C[C@H](NC(=O)c2ccc(OCC4COCCO4)nc2)CO3)cc1F` (stereo partly drawn) [Example 166, 6-(1,4-dioxan-2-ylmethoxy)-N-[(3S)-5-(5-fluoro-6-methoxypyridin-3-yl)-3,4-dihydro-2H-chromen-3-yl]nicotinamide], the IC50 was 0.501 µM.

`COc1ncc(-c2cccc3c2C[C@H](NC(=O)c2ccc(OC4CCC4)nc2)CO3)cc1F` [Example 94, 6-(cyclobutyloxy)-N-[(3S)-5-(5-fluoro-6-methoxypyridin-3-yl)-3,4-dihydro-2H-chromen-3-yl]nicotinamide] had an IC50 of 0.794 µM.

Compound `COc1cnc(C(=O)N[C@@H]2COc3cccc(-c4ccncc4)c3C2)cn1` [Example 37, 5-methoxy-N-[(3S)-5-pyridin-4-yl-3,4-dihydro-2H-chromen-3-yl]pyrazine-2-carboxamide] gave a concentration for half-maximal inhibition (IC50) of 1 µM.

The compound `Cc1noc(C)c1-c1cccc2c1C[C@H](NC(=O)c1ccc(OC(F)(F)F)cc1)CC2` [Example 10, N-[(2R)-8-(3,5-Dimethylisoxazol-4-yl)-1,2,3,4-tetrahydronaphthalen-2-yl]-4-(trifluoromethoxy)-benzamide] gave a 50% inhibitory concentration (IC50) of 3.98 µM.

With `COc1ncc(-c2cccc3c2C[C@@H](NC(=O)c2ccc(OC4CCOCC4)nc2)CC3)cn1` [Example 154, N-[(2S)-8-(2-methoxypyrimidin-5-yl)-1,2,3,4-tetrahydronaphthalen-2-yl]-6-(tetrahydro-2H-pyran-4-yloxy)nicotinamide], the IC50 was 6.31 µM.

The compound `CC(C)Oc1ccc(C(=O)N[C@@H]2COc3cccc(-c4ccncc4)c3C2)cn1` [Example 20, 6-isopropoxy-N-[(3S)-5-pyridin-4-yl-3,4-dihydro-2H-chromen-3-yl]nicotin-amide] showed an IC50 of 0.158 µM.

Turning to `O=C(N[C@@H]1COc2cccc(-c3cccnc3)c2C1)c1cnc(OCCC(F)(F)F)cn1` [Example 43, N-[(3S)-5-pyridin-3-yl-3,4-dihydro-2H-chromen-3-yl]-5-(3,3,3-trifluoropropoxy)pyrazine-2-carboxamide], inhibition was half-maximal at 0.501 µM (IC50).

Consider `CC(C)Oc1cnc(C(=O)N[C@@H]2COc3cccc(-c4ccncc4)c3C2)cn1` [Example 38, 5-isopropoxy-N-[(3S)-5-pyridin-4-yl-3,4-dihydro-2H-chromen-3-yl]pyrazine-2-carboxamide], for which the midpoint of inhibition, the IC50, lay at 0.631 µM. The IC50 values of the last two compounds are within 1.5-fold of each other.

The compound `Cn1cc(-c2cccc3c2C[C@H](NC(=O)c2ccc(OS(=O)(=O)C(F)(F)F)cc2)CC3)cn1` [Example 7, 4-{[(2R)-8-(1-Methyl-1H-pyrazol-4-yl)-1,2,3,4-tetrahydronaphthalen-2-yl]carbamoyl}phenyl trifluoromethanesulfonate] had an IC50 of 0.2 µM.

In the case of `Cc1ncc(-c2cccc3c2C[C@H](NC(=O)c2ccc(OCC(F)(F)F)nc2)CO3)cn1` [Example 102, N-[(3S)-5-(2-methylpyrimidin-5-yl)-3,4-dihydro-2H-chromen-3-yl]-6-(2,2,2-trifluoroethoxy)nicotinamide], 0.1 µM corresponded to half-maximal inhibition (IC50).

The compound `COc1ncc(-c2cccc3c2C[C@H](NC(=O)c2ccnc(OCCOCC(F)(F)F)c2)CO3)cn1` [Example 172, N-[(3S)-5-(2-methoxypyrimidin-5-yl)-3,4-dihydro-2H-chromen-3-yl]-2-[2-(2,2,2-trifluoroethoxy)ethoxy]isonicotinamide] gave an IC50 of 0.2 µM.

As to `CN(CCC(F)(F)F)C(=O)c1ccc(C(=O)N[C@@H]2COc3cccc(-c4cnc(C5CC5)nc4)c3C2)cn1` [Example 198, N^5-[(3S)-5-(2-cyclopropylpyrimidin-5-yl)-3,4-dihydro-2H-chromen-3-yl]-N^2-methyl-N^2-(3,3,3-trifluoropropyl)pyridine-2,5-dicarboxamide], half-maximal inhibition (IC50) was put at 0.501 µM.

`COc1ncc(-c2cccc3c2C[C@H](NC(=O)c2ccc(C(=O)N(C)CC(F)(F)F)nc2)CO3)cn1` [Example 191, N^5-[(3S)-5-(2-methoxypyrimidin-5-yl)-3,4-dihydro-2H-chromen-3-yl]-N^2-methyl-N^2-(2,2,2-trifluoroethyl)pyridine-2,5-dicarboxamide]: the IC50 is 0.794 µM.

For the compound `COc1ncc(-c2cccc3c2C[C@H](NC(=O)c2ccc(OCC(F)(F)F)nc2)CO3)cc1F` [Example 88, N-[(3S)-5-(5-fluoro-6-methoxypyridin-3-yl)-3,4-dihydro-2H-chromen-3-yl]-6-(2,2,2-trifluoroethoxy)nicotinamide], the midpoint of inhibition, the IC50, lay at 0.398 µM.

`O=C(N[C@@H]1COc2cccc(-c3ccncc3)c2C1)c1ccc(OC(F)(F)F)cc1` [Example 1, N-[(3S)-5-Pyridin-4-yl-3,4-dihydro-2H-chromen-3-yl]-4-(trifluoromethoxy)-benzamide] showed an IC50 of 0.398 µM.

In turn, `O=C(N[C@@H]1COc2cccc(-c3ccncc3)c2C1)c1ccc(C(=O)NCC(F)(F)F)nc1` [Example 131, N^5-[(3S)-5-pyridin-4-yl-3,4-dihydro-2H-chromen-3-yl]-N^2-(2,2,2-trifluoroethyl)pyridine-2,5-dicarboxamide] gave an IC50 of 0.631 µM.

For the compound `CN(C)C(=O)c1ncc(-c2cccc3c2C[C@H](NC(=O)c2ccc(OCCOCC(F)(F)F)nc2)CO3)cn1` [Example 209, N,N-dimethyl-5-{(3S)-3-[({6-[2-(2,2,2-trifluoroethoxy)ethoxy]pyridin-3-yl}carbonyl)amino]-3,4-dihydro-2H-chromen-5-yl}pyrimidine-2-carboxamide], the IC50 was 7.94 µM.

Turning to `COc1ccc(C(=O)N[C@@H]2CCc3cccc(-c4ccncc4)c3C2)c(OC)c1` [Example 16, 2,4-dimethoxy-N-[(2R)-8-pyridin-4-yl-1,2,3,4-tetrahydronaphthalen-2-yl]-benzamide], the IC50 is 2 µM. This IC50 lies about 4-fold lower than the previous one.

Values taken from US8143408B2, “N-(8-heteroaryltetrahydronaphtalene-2yl) or N-(5-heteroarylchromane-3-yl) carboxamide derivatives for the treatment of pain” (AstraZeneca AB, priority 2007, dated 2012).
